# Source: patent US20120083460A1 (SAN EI GEN F.F.I., INC., priority 2009, published 2012)
# “And” between values parts separate entries of the source, which are not always exact repeats. Equal values may be shown once. Read-outs that look alike come from different tables or passages of the source.
# Tests used:
# [1] = Evaluation of preservation stability (presence or absence of deposits) in acid and sugar solution (Experiment Example 3); type: physicochemical; parameters: key: +: the presence of deposits; −: the absence of deposits; ×: no dissolution in the acid and sugar solution; details: 30 days
# Protocol: Each solution was hot-packed in a 200-ml PET bottle (93° C.). The drink so prepared was allowed to cool, and placed under 50° C., room temperature (25±2° C.), and low-temperature (5° C.) conditions for 30 days. The presence or absence of deposits was then checked by visual inspection.
# The drink so prepared was allowed to cool, and placed under 50° C., room temperature (25±2° C.), and low-temperature (5° C.) conditions for 30 days. The presence or absence of deposits was then observed.
# In the table, the symbol “+” means the presence of deposits, and “−” the absence of deposits. The symbol “×” means no dissolution in the acid and sugar solution.
# [2] = Evaluation of fading suppressing effect, fluorescent light irradiation (Experiment Example 4); details: final IQC 0.01% (γ-CD alone 0.14%), drink pH 3.1
# Protocol: (§1) Specifically, a colorant-containing acidic drink of the formulation below was prepared. […] The drinks were irradiated with a fluorescent light (BIOTRON LH 300, NK System) or a UV Fade Meter (UV Long-Life Fade Meter FAL-3, Suga Test Instruments Co., Ltd.) for the durations presented in Table 6. Absorbance was measured before and after the irradiation, and the percentage remaining color (%) after the irradiation was calculated. Further, as a control test, a colorant-containing acidic drink was irradiated with the UV Fade Meter or fluorescent light as above without adding anything (no addition), and the percentage remaining color (%) after the irradiation was calculated.
# [3] = Evaluation of fading suppressing effect, UV Fade Meter irradiation (Experiment Example 4); details: final IQC 0.01% (γ-CD alone 0.14%), drink pH 3.1
# Protocol: as §1
# [4] = Evaluation of water solubility with α- and β-cyclodextrins (Reference Experiment Example); type: physicochemical; details: water (25° C.), method of Experiment Example 1
# [5] = Evaluation of flavor deterioration suppressing effect, sensory evaluation by six panelists (Experiment Example 5); details: drinks of formulations 1 to 7, IQC added as it is, final IQC 0.01%
# Protocol: In the same manner, γ-CD (Wacker Chemical) was added to each drink in a final concentration of 0.14% to prepare a drink that contained γ-CD.
# The drinks prepared as above were tested under the severity conditions presented in Table 9, and changes in drink flavor after the test were examined by six panelists in a sensory evaluation. Evaluations were made according to the following criteria on the scale of 1 (stress tested drink (blank) without any addition) to 5 (each drink before the test).
# Table 9 presents means values of the scored points evaluated by the six panelists.
# [6] = Absorption in the body: IQC metabolites in plasma after oral administration (Experiment Example 6); type: in vivo; details: 375 mg IQC equivalent, person n=1
# Protocol: After 1, 2, and 3 hours from the administration, bloods were collected using heparin as anti-coagulant from the person, and centrifuged to obtain plasmas.
# About 29,000 unit/ml β-glucuronidase (20 μl) dissolved in 0.58 M sodium acetate buffer (pH 4.9) was added to the plasma (180 μl), and the mixture was left unattended at 37° C. for 30 min. After adding 1 M AsA/10 mM sodium metaphosphate (50 μl, in terms of phosphoric acid) and 20 μg/ml diosmetin (9 μl), the mixture was frozen at −80° C., and freeze dried overnight. The freeze dried sample was suspended in MeOH (1 ml), and centrifuged at 15,000 rpm for 10 min. The supernatant was concentrated and dried, and dissolved in MeOH (90 μl). After adding 200 mM HCl (90 μl), the solution was centrifuged at 15,000 rpm for 10 min to collect the supernatant. The IQC metabolites quercetin, isorhamnetin, and tamarixetin in the plasma were then quantified by HPLC under the conditions below.
# [7] = Evaluation of the solubility of other flavonoids in water (Experiment Example 2); type: physicochemical
# Protocol: The solubility (mg/ml) of each composition in water in terms of the flavonoid was then determined according to the method of Experiment Example 1. The solubility (mg/ml) of the flavonoid itself in water was also determined as a control, and the solubility (fold) was calculated from the relative ratio of the two.
# [8] = Evaluation of IQC composition solubility in water (Experiment Example 1); type: physicochemical; details: for Solubility (in terms of isoquercitrin, mg/ml): water, shaken at 25° C. for 40 hours, solution pH 4.7-5.7 (Table 1)
# Protocol: The Samples were added until they could not be dissolved further and formed deposits. Each solution was shaken at 25° C. for 40 hours, and centrifuged at 9,000 rpm for 10 min to collect the supernatant. The supernatant was appropriately diluted with a 0.1% phosphoric acid aqueous solution, and absorbance (340 nm) was measured.
# [9] = Cochineal colorant, fluorescence irradiation 6 D
# [10] = Elderberry colorant, fluorescence irradiation 2 D
# [11] = Grape juice colorant, fluorescence irradiation 20 D
# [12] = Paprika colorant, fluorescence irradiation 1 D
# [13] = Purple corn colorant, fluorescence irradiation 1 D
# [14] = Purple sweet potato colorant, fluorescence irradiation 8 D
# [15] = Red cabbage colorant, fluorescence irradiation 4 D
# [16] = Safflower yellow colorant, fluorescence irradiation 4 D
# [17] = β-carotene, fluorescence irradiation 6 D
# [18] = Cochineal colorant, UV fade meter irradiation 6 H
# [19] = Elderberry colorant, UV fade meter irradiation 2 H
# [20] = Grape juice colorant, UV fade meter irradiation 20 H
# [21] = Paprika colorant, UV fade meter irradiation 3 H
# [22] = Purple corn colorant, UV fade meter irradiation 4 H
# [23] = Purple sweet potato colorant, UV fade meter irradiation 7 H
# [24] = Red cabbage colorant, UV fade meter irradiation 8 H
# [25] = Safflower yellow colorant, UV fade meter irradiation 4 H
# [26] = β-carotene, UV fade meter irradiation 17 H
smiles,measurement,setting,value
"O=c1c(O[C@@H]2O[C@H](CO)[C@@H](O)[C@H](O)[C@H]2O)c(-c2ccc(O)c(O)c2)oc2cc(O)cc(O)c12 [IQC, isoquercitrin]",presence or absence of deposits,"[1]; pH 6, 50° C., flavonoid concentration 0.05%",−
same,presence or absence of deposits,"[1]; pH 6, Refrigerated (5° C.), flavonoid concentration 0.05%",+
same,presence or absence of deposits,"[1]; pH 6, Room temperature, flavonoid concentration 0.05%",+
same,presence or absence of deposits,"[1]; pH 9, 50° C., flavonoid concentration 0.05%",−
same,presence or absence of deposits,"[1]; pH 9, 50° C., flavonoid concentration 0.10%",−
same,presence or absence of deposits,"[1]; pH 9, Refrigerated (5° C.), flavonoid concentration 0.05%",+
same,presence or absence of deposits,"[1]; pH 9, Refrigerated (5° C.), flavonoid concentration 0.10%",+
same,presence or absence of deposits,"[1]; pH 9, Room temperature, flavonoid concentration 0.05%",−
same,presence or absence of deposits,"[1]; pH 9, Room temperature, flavonoid concentration 0.10%",+
same,percentage remaining color (%),[2]; [9],75.6%
same,percentage remaining color (%),[2]; [10],64.5%
same,percentage remaining color (%),[2]; [11],91.1%
same,percentage remaining color (%),[2]; [12],91.3%
same,percentage remaining color (%),[2]; [13],76.4%
same,percentage remaining color (%),[2]; [14],76.9%
same,percentage remaining color (%),[2]; [15],60.1%
same,percentage remaining color (%),[2]; [16],72.8%
same,percentage remaining color (%),[2]; [17],71.2%
same,percentage remaining color (%),[3]; [18],91.1%
same,percentage remaining color (%),[3]; [19],70.2%
same,percentage remaining color (%),[3]; [20],93.1%
same,percentage remaining color (%),[3]; [21],55.8%
same,percentage remaining color (%),[3]; [22],59.8%
same,percentage remaining color (%),[3]; [23],88.0%
same,percentage remaining color (%),[3]; [24],50.8%
same,percentage remaining color (%),[3]; [25],71.6%
same,percentage remaining color (%),[3]; [26],74.2%
same,"Solubility (in terms of isoquercitrin, mg/ml)",[4],0.10 mg/mL
same,IQC deposits in the prepared drink,[5],deposits were observed within several hours
same,Isorhamnetin in plasma,[6]; blood collection time 0 h,0 µg/mL
same,Quercetin in plasma,[6]; blood collection time 0 h,0.02 µg/mL
same,Tamarixetin in plasma,[6]; blood collection time 0 h,0 µg/mL
same,"Total flavonoid (quercetin, isorhamnetin, tamarixetin) in plasma",[6]; blood collection time 0 h,0.02 µg/mL
same,Isorhamnetin in plasma,[6]; blood collection time 1 h,0 µg/mL
same,Quercetin in plasma,[6]; blood collection time 1 h,0.01 µg/mL
same,Tamarixetin in plasma,[6]; blood collection time 1 h,0 µg/mL
same,"Total flavonoid (quercetin, isorhamnetin, tamarixetin) in plasma",[6]; blood collection time 1 h,0.01 µg/mL
same,Isorhamnetin in plasma,[6]; blood collection time 2 h,0.02 µg/mL
same,Quercetin in plasma,[6]; blood collection time 2 h,0.15 µg/mL
same,Tamarixetin in plasma,[6]; blood collection time 2 h,0.06 µg/mL
same,"Total flavonoid (quercetin, isorhamnetin, tamarixetin) in plasma",[6]; blood collection time 2 h,0.2 µg/mL and 0.22 µg/mL
same,Isorhamnetin in plasma,[6]; blood collection time 3 h,0.01 µg/mL
same,Quercetin in plasma,[6]; blood collection time 3 h,0.15 µg/mL
same,Tamarixetin in plasma,[6]; blood collection time 3 h,0.03 µg/mL
same,"Total flavonoid (quercetin, isorhamnetin, tamarixetin) in plasma",[6]; blood collection time 3 h,0.20 µg/mL
same,AUC,"[6]; total metabolites in plasma, 0-3 h",0.34 (μg/ml)·hr
same,Solubility (fold) (in terms of flavonoids),"[7]; Flavonoid:γ-CD = 1:0 (mole ratio), flavonoid itself = reference 1",1 fold
same,upper limit solubility in water,[8]; acidic condition at 25° C.,0.0102 mass %
same,"Solubility (in terms of isoquercitrin, mg/ml)",[8],0.1020 mg/mL
same,"Solubility (in terms of isoquercitrin, mg/ml)",[8]; listed as Control,0.10 mg/mL
same,"Solubility (in terms of isoquercitrin, mg/ml)",[8]; listed as isoquercitrin,0.102 mg/mL
"O=c1c(O)c(-c2cc(O)c(O)c(O)c2)oc2cc(O)cc(O)c12 [Myricetin, myricetin]",Solubility (fold) (in terms of flavonoids),[7],1 fold
"C[C@@H]1O[C@@H](O[C@H]2[C@H](Oc3cc(O)c4c(c3)O[C@H](c3ccc(O)cc3)CC4=O)O[C@H](CO)[C@@H](O)[C@@H]2O)[C@H](O)[C@H](O)[C@H]1O [Naringin, naringin]",Solubility (fold) (in terms of flavonoids),[7],1 fold
"O=c1c(O)c(-c2ccc(O)c(O)c2)oc2cc(O)cc(O)c12 [Quercetin, quercetin]",Solubility (fold) (in terms of flavonoids),[7],1 fold
"OC[C@H]1O[C@@H]2O[C@H]3[C@H](O)[C@@H](O)[C@@H](O[C@H]4[C@H](O)[C@@H](O)[C@@H](O[C@H]5[C@H](O)[C@@H](O)[C@@H](O[C@H]6[C@H](O)[C@@H](O)[C@@H](O[C@H]7[C@H](O)[C@@H](O)[C@@H](O[C@H]8[C@H](O)[C@@H](O)[C@@H](O[C@H]9[C@H](O)[C@@H](O)[C@@H](O[C@H]1[C@H](O)[C@H]2O)O[C@@H]9CO)O[C@@H]8CO)O[C@@H]7CO)O[C@@H]6CO)O[C@@H]5CO)O[C@@H]4CO)O[C@@H]3CO [γ-CD, γ-cyclodextrin]",percentage remaining color (%),[2]; [9],71.5%
same,percentage remaining color (%),[2]; [10],66.2%
same,percentage remaining color (%),[2]; [11],88.1%
same,percentage remaining color (%),[2]; [12],90.3%
same,percentage remaining color (%),[2]; [13],69.2%
same,percentage remaining color (%),[2]; [14],75.6%
same,percentage remaining color (%),[2]; [15],54.0%
same,percentage remaining color (%),[2]; [16],69.2%
same,percentage remaining color (%),[2]; [17],60.6%
same,percentage remaining color (%),[3]; [18],80.8%
same,percentage remaining color (%),[3]; [19],65.2%
same,percentage remaining color (%),[3]; [20],88.7%
same,percentage remaining color (%),[3]; [21],37.6%
same,percentage remaining color (%),[3]; [22],36.2%
same,percentage remaining color (%),[3]; [23],79.4%
same,percentage remaining color (%),[3]; [24],25.1%
same,percentage remaining color (%),[3]; [25],62.4%
same,percentage remaining color (%),[3]; [26],60.5%
